Assay results as given in publication PMC13198257, “An aerosolized dual-action autotaxin inhibitor-PPARγ agonist for the treatment of pulmonary fibrosis” (Cell Reports Medicine, 2026).

System: lung gene expression
Experiment: RNA sequencing of lung tissue (BLM/EL244 vs BLM)
Type: in vivo, mouse
Protocol: RNA quality was assessed using an Agilent TapeStation 4150 with the High Sensitivity […] ScreenTape (Agilent), according to the manufacturer’s protocols. For library preparation, the QuantSeq 3’mRNA-Seq Library Prep Kit (Lexogen) was used according to manufacturer’s instructions. Briefly, 500 ng of RNA from each sample was used for first-strand synthesis, followed by RNA template removal, and second-strand synthesis initiated by random primers. In-line barcodes were introduced at this step, and this was followed by magnetic bead-based purification. The resulting libraries were amplified for 15 cycles and re-purified, with quantity and quality assessed on a Qubit 4 Fluorometer with the Invitrogen Qubit dsDNA HS Assay and an Agilent Tapestation 4150 with the High Sensitivity D1000 assay kit, respectively. The quantified libraries were pooled equimolarly; 50ng of total library mix was used for Adapter Conversion PCR Amplification using the Universal Library Conversion Kit (App-A), Version: V1.0 (MGI Tech Co., Ltd.), according to the manufacturer’s instructions.
The quantity and quality of the purified adapter conversion PCR (AC-PCR) product were evaluated on a Qubit 4 Fluorometer with the Invitrogen Qubit dsDNA HS Assay and on an Agilent Tapestation 4150 with the High Sensitivity D1000 assay kit, respectively. This was followed by DNA denaturation, Single-Strand Circularisation, Enzymatic Digestion, Enzymatic Digestion Product Cleanup and Quality Control steps on 1 pmol of AC-PCR product, according to the Universal Library Conversion Kit (App-A) User Manual (Version: A3).
Finally, 60 fmol of ssCirDNA were used for DNB preparation and sequencing on a DNBSEQ-G400 platform at the BSRC Alexander Fleming Genomics Facility, using a G400 App-A FCS SE100 High-throughput Sequencing Set (MGI Tech Co., Ltd.), according to the manufacturer’s instructions.
Alignment of the FASTQ files was performed against the mouse genome build mm10 using a custom Bash script.[143] Read counting on the 3′ UTRs and differential expression analysis were conducted using the metaseqR2 bioconductor package.[144] Genes corresponding to the following biotypes were excluded: polymorphic_pseudogene, processed_transcript, pseudogene, IG_V_pseudogene, misc_RNA, IG_C_gene, IG_J_gene, IG_D_gene, IG_LV_gene, TR_V_gene, TR_V_pseudogene, TEC, and processed_pseudogene. Gene counts were normalized with DESEQ[145] through metaseqR2. Genes with more than 10 counts in at least 50% of the samples were kept for further processing. For differential expression analysis, the PANDORA algorithm[146] was used to estimate a meta p-value integrating the results from the DESEQ, DESEQ2,[147] edgeR,[148] limma,[149] NBPSeq,[150] and NOISeq[151] algorithms. All additional parameters were set to default values.
Pathway enrichment analysis was performed for the Gene Ontology Biological process (BP) and Molecular Function (MF) terms through GeneCodis 4.[152] The volcano plots, scatterplots, Venn diagrams, and dot plots were generated using the ggplot2 Bioconductor package.

O=C1NC(=O)C(Cc2ccc(OCCC3CCN(C(=O)OCc4cc(Cl)cc(Cl)c4)CC3)cc2)S1 (stereo not drawn) [EL244, 3,5-dichlorobenzyl 4-(2-(4-((2,4-dioxothiazolidin-5-yl)methyl)phenoxy)ethyl)piperidine-1-carboxylate]
log2 nFC BLM/EL244 vs BLM (DEG Ccl9): -1.37 | log2 nFC BLM/EL244 vs BLM (DEG Ccnb1): -2.41 | Cd300lg log2 nFC BLM/EL244 vs BLM (DEG Cd300lg, nFC: normalised fold change): 1.18 | log2 nFC BLM/EL244 vs BLM (DEG Cdc20): -1.58 | log2 nFC BLM/EL244 vs BLM (DEG Cdca2): -1.33 | log2 nFC BLM/EL244 vs BLM (DEG Cenpa): -1.31 | log2 nFC BLM/EL244 vs BLM (DEG Cenpk): -1.51 | log2 nFC BLM/EL244 vs BLM (DEG Cenpw): -1.33 | Cep85l log2 nFC BLM/EL244 vs BLM (DEG Cep85l, nFC: normalised fold change): 1.02 | log2 nFC BLM/EL244 vs BLM (DEG Cercam): -1.37 | Cfap100 log2 nFC BLM/EL244 vs BLM (DEG Cfap100, nFC: normalised fold change): 0.89 | Cfap206 log2 nFC BLM/EL244 vs BLM (DEG Cfap206, nFC: normalised fold change): 0.77 | Cftr log2 nFC BLM/EL244 vs BLM (DEG Cftr, nFC: normalised fold change): 0.96 | Chia1 log2 nFC BLM/EL244 vs BLM (DEG Chia1, nFC: normalised fold change): 1.16 | Chrdl1 log2 nFC BLM/EL244 vs BLM (DEG Chrdl1, nFC: normalised fold change): 1.39 | log2 nFC BLM/EL244 vs BLM (DEG Chsy3): -1.56 | Cidec log2 nFC BLM/EL244 vs BLM (DEG Cidec, nFC: normalised fold change): 1.57 | log2 nFC BLM/EL244 vs BLM (DEG Cilp): -1.39 | log2 nFC BLM/EL244 vs BLM (DEG Ckap2): -2.44 | Ckm log2 nFC BLM/EL244 vs BLM (DEG Ckm, nFC: normalised fold change): 2.32 | Ckmt2 log2 nFC BLM/EL244 vs BLM (DEG Ckmt2, nFC: normalised fold change): 2.73 | log2 nFC BLM/EL244 vs BLM (DEG Cks1b): -1.54 | Cldn5 log2 nFC BLM/EL244 vs BLM (DEG Cldn5, nFC: normalised fold change): 0.97 | log2 nFC BLM/EL244 vs BLM (DEG Clec4a2): -1.26 | log2 nFC BLM/EL244 vs BLM (DEG Clec4n): -1.39 | log2 nFC BLM/EL244 vs BLM (DEG Col1a2): -1.41 | log2 nFC BLM/EL244 vs BLM (DEG Col3a1): -1.54 | log2 nFC BLM/EL244 vs BLM (DEG Col5a1): -1.52 | log2 nFC BLM/EL244 vs BLM (DEG Col5a2): -1.48 | log2 nFC BLM/EL244 vs BLM (DEG Col5a3): -1.53 | Colq log2 nFC BLM/EL244 vs BLM (DEG Colq, nFC: normalised fold change): 1.81 | Cox6a2 log2 nFC BLM/EL244 vs BLM (DEG Cox6a2, nFC: normalised fold change): 1.42 | Crebl2 log2 nFC BLM/EL244 vs BLM (DEG Crebl2, nFC: normalised fold change): 0.79 | Crispld2 log2 nFC BLM/EL244 vs BLM (DEG Crispld2, nFC: normalised fold change): 0.80 | Cry2 log2 nFC BLM/EL244 vs BLM (DEG Cry2, nFC: normalised fold change): 0.70 | Csf3r log2 nFC BLM/EL244 vs BLM (DEG Csf3r, nFC: normalised fold change): 1.69 | Csrnp1 log2 nFC BLM/EL244 vs BLM (DEG Csrnp1, nFC: normalised fold change): 0.83 | Csrp3 log2 nFC BLM/EL244 vs BLM (DEG Csrp3, nFC: normalised fold change): 2.07 | Cst8 log2 nFC BLM/EL244 vs BLM (DEG Cst8, nFC: normalised fold change): 1.41 | Ctla2a log2 nFC BLM/EL244 vs BLM (DEG Ctla2a, nFC: normalised fold change): 0.72 | Ctla2b log2 nFC BLM/EL244 vs BLM (DEG Ctla2b, nFC: normalised fold change): 0.96 | log2 nFC BLM/EL244 vs BLM (DEG Cxcl13): -1.42 | Cxcr2 log2 nFC BLM/EL244 vs BLM (DEG Cxcr2, nFC: normalised fold change): 1.19 | Cyp2a5 log2 nFC BLM/EL244 vs BLM (DEG Cyp2a5, nFC: normalised fold change): 1.66 | Cyp2d22 log2 nFC BLM/EL244 vs BLM (DEG Cyp2d22, nFC: normalised fold change): 0.97 | Cyp2f2 log2 nFC BLM/EL244 vs BLM (DEG Cyp2f2, nFC: normalised fold change): 0.79 | Cyp4b1 log2 nFC BLM/EL244 vs BLM (DEG Cyp4b1, nFC: normalised fold change): 1.18 | log2 nFC BLM/EL244 vs BLM (DEG Cyp7b1): -1.41 | Cytl1 log2 nFC BLM/EL244 vs BLM (DEG Cytl1, nFC: normalised fold change): 1.67 | D630024D03Rik log2 nFC BLM/EL244 vs BLM (DEG D630024D03Rik, nFC: normalised fold change): 1.60 | Dgkh log2 nFC BLM/EL244 vs BLM (DEG Dgkh, nFC: normalised fold change): 0.84 | Dnali1 log2 nFC BLM/EL244 vs BLM (DEG Dnali1, nFC: normalised fold change): 0.73 | log2 nFC BLM/EL244 vs BLM (DEG Dok2): -1.37 | Dpep1 log2 nFC BLM/EL244 vs BLM (DEG Dpep1, nFC: normalised fold change): 0.71 | Dpysl5 log2 nFC BLM/EL244 vs BLM (DEG Dpysl5, nFC: normalised fold change): 1.90 | Dusp1 log2 nFC BLM/EL244 vs BLM (DEG Dusp1, nFC: normalised fold change): 0.86 | log2 nFC BLM/EL244 vs BLM (DEG E2f8): -1.57
